Biological target: T1, BACE1 (Homo sapiens, UniProt P56817)
T1 construct: endogenous in cells; host or cells: HEK-293 (stably transfected with wild type APP695 only)
Assay: Cellular BACE1 Inhibition Assay (in vitro cellular Amyloidβ 1-40 production assay, HTRF immunoassay)
Assay type: cell-based
Protocol: The BACE inhibition properties of the compounds of the invention may be determined by the following in vitro cellular Amyloidβ 1-40 production assay.
Inhibition of Amyloidβ1-40 production was determined by incubating cells with compound for 48 hours and quantifying the level of Amyloidβ 1-40 using an HTRF immunoassay.
Materials and Methods: HEK-293 cells stably transfected with a DNA construct containing the coding sequence for the wild type APP695 sequence were grown in DMEM supplemented with 10% fetal bovine serum, penicillin/streptomycin and 150 μg/mL G418. Cells were plated in 96-well plates at 35,000 cells/well and allowed to attach for 8-12 hours. Media was changed to DMEM supplemented with 10% fetal bovine serum, penicillin/streptomycin 15 minutes prior to compound addition. Diluted compounds were then added at a final concentration of 0.5% DMSO. After 48 hours, 4 μL of media from each well was added to a corresponding well of a 384 well plate (Perkin Elmer Cat#6008280) containing the HTRF reagents. HTRF reagents were obtained from the CisBio Amyloidβ 1-40 peptide assay kit (Cat#62B40PEC) and were prepared as follows anti-peptide β (1-40)-Cryptate and anti-peptide β (1-40)-XL655 were stored in 2 plate aliquots at −80° C. Diluent and Reconstitution buffer were stored at 4° C. Aliquots of the two antibodies were diluted 1:100 with Reconstitution buffer, and this mixture was diluted 1:2 with Diluent. 12 μL of the reagent mixture was added to the required wells of the 384 well assay plate. The assay plate was incubated at 4° C. for 17 hours and then analyzed for fluorescence at 665 and 620 nm.

T1 sequence (P56817 46-501): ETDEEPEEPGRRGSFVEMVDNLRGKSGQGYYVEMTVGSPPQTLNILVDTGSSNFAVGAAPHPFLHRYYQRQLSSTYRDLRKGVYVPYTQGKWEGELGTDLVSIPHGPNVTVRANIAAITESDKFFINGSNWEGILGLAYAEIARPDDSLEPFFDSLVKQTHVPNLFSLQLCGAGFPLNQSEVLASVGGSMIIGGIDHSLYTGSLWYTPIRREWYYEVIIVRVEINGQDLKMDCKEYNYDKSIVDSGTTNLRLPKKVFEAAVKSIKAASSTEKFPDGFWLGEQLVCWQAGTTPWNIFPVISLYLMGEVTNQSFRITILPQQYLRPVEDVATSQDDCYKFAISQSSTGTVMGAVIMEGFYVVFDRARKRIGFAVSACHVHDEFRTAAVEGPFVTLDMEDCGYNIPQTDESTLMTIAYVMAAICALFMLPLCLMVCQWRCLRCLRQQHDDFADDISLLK

SMILES | IC50 [nM]
Cc1cc(C(=O)Nc2ccc3c(c2)C2(CCSC(N)=N2)CC(C)(C)C3)c(C)o1 (stereo not shown) [Example 95, N-(2′-amino-3,3-dimethyl-3,4,5′,6′-tetrahydro-2H-spiro[naphthalene-1,4′-[1,3]thiazine]-7-yl)-2,5-dimethylfuran-3-carboxamide] | 276
CN1C(=O)C2(CC(C)(C)Cc3ccc(-c4cncc(C#N)c4)cc32)N=C1N (stereo not shown) [Example 134, 5-(2-amino-1,3′,3′-trimethyl-5-oxo-1,3′,4′,5-tetrahydro-2′H-spiro[imidazole-4,1′-naphthalene]-7′-yl)nicotinonitrile] | 7.9
CC(C)CCc1ccc2c(c1)C1(N=C(N)N(C)C1=O)C(C)CC2 (stereo not shown) [Example 22] | 264
CN1C(=O)[C@@]2(N=C1N)c1cc(-c3cccc(Cl)c3)ccc1CC[C@H]2CC1CCN(CC(F)F)CC1 [Example 32, (1′S,2′S)-2-amino-7′-(3-chlorophenyl)-2′-((1-(2,2-difluoroethyl)piperidin-4-yl)methyl)-1-methyl-3′,4′-dihydro-2′H-spiro[imidazole-4,1′-naphthalen]-5(1H)-one] | 48.6
CN1C(=O)C2(N=C1N)c1cc(-c3cncnc3)ccc1CC(C)(C)C2(F)F (stereo not shown) [Example 160, 2-amino-2′,2′-difluoro-1,3′,3′-trimethyl-7′-(pyrimidin-5-yl)-3′,4′-dihydro-2′H-spiro[imidazole-4,1′-naphthalen]-5(1H)-one] | 87.3
CN1C(=O)C2(N=C1N)c1cc(-c3cccnc3F)ccc1CC(C)(C)C2(F)F (stereo not shown) [Example 159, 2-amino-2′,2′-difluoro-7′-(2-fluoropyridin-3-yl)-1,3′,3′-trimethyl-3′,4′-dihydro-TH-spiro[imidazole-4,1′-naphthalen]-5(1H)-one] | 26.1
CN1C(=O)C2(CC(C)(C)Cc3ccc(-c4cc(C(F)(F)F)ccn4)cc32)N=C1N (stereo not shown) [Example 139, 2-amino-1,3′,3′-trimethyl-7′-(4-(trifluoromethyl)pyridin-2-yl)-3′,4′-dihydro-2′H-spiro[imidazole-4,1′-naphthalen]-5(1H)-one] | 14.8
CN1C(=O)C2(N=C1N)c1cc(-c3cncc(Cl)c3)ccc1CCC2(C)C (stereo not shown) [Example 26, 2-amino-7′-(5-chloropyridin-3-yl)-1,2′,2′-trimethyl-3′,4′-dihydro-2′H-spiro[imidazole-4,1′-naphthalen]-5(1H)-one] | 19.7
CN1C(=O)[C@]2(N=C1N)c1cc(-c3cncnc3)ccc1C[C@]1(C)CC12 (single isomer, unassigned) [Example 155] | 27.1
CN1C(=O)C2(N=C1N)c1cc(-c3cncnc3)ccc1CC(C)(C)C2F (stereo not shown) [Example 157, 2-amino-2′-fluoro-1,3′,3′-trimethyl-7′-(pyrimidin-5-yl)-3′,4′-dihydro-2′H-spiro[imidazole-4,1′-naphthalen]-5(1H)-one] | 39.6
CN1C(=O)[C@]2(C[C@@](C)(Cc3ccccc3)Cc3ccc(-c4cncc(Cl)c4)cc32)N=C1N [Example 147, (1′R,3′S)-2-amino-3′-benzyl-7′-(5-chloropyridin-3-yl)-1,3′-dimethyl-3′,4′-dihydro-2′H-spiro[imidazole-4,1′-naphthalen]-5(1H)-one] | 1.3
CN1C(=O)C2(CCCc3ccc(-c4cncc(Cl)c4)cc32)N=C1N (stereo not shown) [Example 23, 2-amino-7′-(5-chloropyridin-3-yl)-1-methyl-3′,4′-dihydro-2′H-spiro[imidazole-4,1′-naphthalen]-5(1H)-one] | 28.5
CN1C(=O)C2(CC(C)(C)Cc3ccc(C#CC4CC4)cc32)N=C1N (stereo not shown) [Example 17, 2-amino-7′-(cyclopropylethynyl)-1,3′,3′-trimethyl-3′,4′-dihydro-2′H-spiro[imidazole-4,1′-naphthalen]-5(1H)-one] | 81.9
CN1C(=O)C2(CC3(CCOCC3)Cc3ccc(/C=C/C(C)(C)C)cc32)N=C1N (stereo not shown) [Example 45, (E)-2-amino-7″-(3,3-dimethylbut-1-enyl)-1-methyl-2′,3′,5′,6′-tetrahydro-3″,4″-dihydro-2″H-dispiro[imidazol-4,1″-naphthalen-3″,4′-pyran]-5(1H)-one] | 69.6
CN1C(=O)C2(CC3(CCC3)Cc3ccc(-c4cccc(Cl)c4)cc32)N=C1N (stereo not shown) [Example 37, 2-amino-7′-(3-chlorophenyl)-1-methyl-5-oxo-3′,4′-dihydro-2′H-dispiro[imidazol-4,1′-naphthalen-3′,1″-cyclobutyl]-5 (1H)-one] | 241
CC1CCc2ccc(-c3cccc(Cl)c3)cc2C12N=C(N)N(C)C2=O (stereo not shown) [Example 21, 2-amino-7′-(3-chlorophenyl)-1,2′-dimethyl-3′,4′-dihydro-2′H-spiro[imidazole-4,1′-naphthalen]-5(1H)-one] | 226

SMILES | IC50 [nM]
CN1C(=O)C2(CC(C)(C)Cc3ccc(-c4cccc(Cl)c4)nc32)N=C1N (stereo not shown) [Example 20, 2-amino-2′-(3-chlorophenyl)-1,6′,6′-trimethyl-6′,7′-dihydro-5′H-spiro[imidazole-4,8′-quinolin]-5(1H)-one] | 1430
CN1C(=O)CC2(CC(C)(C)Cc3ccc(-c4cccnc4F)cc32)N=C1N (stereo not shown) [Example 96, 2′-amino-7-(2-fluoropyridin-3-yl)-1′,3,3-trimethyl-3,4-dihydro-1′H,2H-spiro[naphthalene-1,4′-pyrimidin]-6′(5′H)-one] | 1320
CN1C(=O)C2(CC3(CCOCC3)Cc3ccc(-c4cncnc4)cc32)N=C1N (stereo not shown) [Example 74, 2-amino-7″-(pyrimidin-5-yl)-1-methyl-2′,3′,5′,6′-tetrahydro-3″,4″-dihydro-2″H-dispiro[imidazol-4,1″- naphthalen-3″,4′-pyran]-5(1H)-one] | 258
CN1C(=O)C2(CC(C)(C)Cc3ccc(C#CCCCC#N)cc32)N=C1N (stereo not shown) [Example 18, 6-(2-amino-1,3′,3′-trimethyl-5-oxo-1,3′,4′,5-tetrahydro-2′H-spiro[imidazole-4,1′-naphthalene]-7′-yl)hex-5-ynenitrile] | 37.4
CN1C(=O)C2(CCCc3ccc(-c4cccc(Cl)c4)cc32)N=C1N (stereo not shown) [Example 24, 2-amino-7′-(3-chlorophenyl)-1-methyl-3′,4′-dihydro-2′H-spiro[imidazole-4,1′-naphthalen]-5(1H)-one] | 189
CN1C(=O)C2(N=C1N)c1cc(-c3cncnc3)ccc1CCC2(C)C (stereo not shown) [Example 27, 2-amino-1,2′,2′-trimethyl-7′-(pyrimidin-5-yl)-3′,4′-dihydro-TH-spiro[imidazole-4,1′-naphthalen]-5(1H)-one] | 10.1
Cc1cnc(F)c(-c2ccc3c(c2)C2(CC(C)(C)C3)N=C(N)N(C)C2=O)c1 (stereo not shown) [Example 135, 2-amino-7′-(2-fluoro-5-methylpyridin-3-yl)-1,3′,3′-trimethyl-3′,4′-dihydro-2′H-spiro[imidazole-4,1′-naphthalen]-5(1H)-one] | 8.1
CN1C(=O)C2(N=C1N)c1cc(-c3cccc(C#N)c3)ccc1CCC2(C)C (stereo not shown) [Example 28, 3-(2-amino-1,2′,2′-trimethyl-5-oxo-1,3′,4′,5-tetrahydro-2′H-spiro[imidazole-4,1′-naphthalene]-7′-yl)benzonitrile] | 92.5
CN1C(=O)C2(CC3(CCOCC3)Cc3ccc(-c4cc(F)cc(Cl)c4)cc32)N=C1N (stereo not shown) [Example 42, 2-amino-7″-(3-fluoro-5-chlorophenyl)-1-methyl-2′,3′,5′,6′-tetrahydro-3″,4″-dihydro-2″H-dispiro[imidazol-4,1″-naphthalen-3″,4′-pyran]-5(1H)-one] | 121
CN1C(=O)C2(CC(C)(C)Cc3ccc(/C=C/C4CC4)cc32)N=C1N (stereo not shown) [Example 15, (E)-2-amino-7′-(2-cyclopropylvinyl)-1,3′,3′-trimethyl-3′,4′-dihydro-2′H-spiro[imidazole-4,1′-naphthalen]-5(1H)-one] | 76.7
CC1(C)Cc2ccc(NC(=O)c3ccc(Br)cn3)cc2C2(COC(N)=N2)C1 (stereo not shown) [Example 88, N-(2′-amino-3,3-dimethyl-3,4-dihydro-2H,5′H-spiro[naphthalene-1,4′-oxazole]-7-yl)-5-bromopicolinamide] | 46.3
CC1(C)Cc2ccc(-c3cncnc3)cc2C2(CSC(N)=N2)C1 (stereo not shown) [Example 109, 3,3-dimethyl-7-(pyrimidin-5-yl)-3,4-dihydro-2H,5′H-spiro[naphthalene-1,4′-thiazol]-2′-amine] | 482
CN1C(=O)C2(N=C1N)c1cc(-c3cccnc3F)ccc1CC(C)(C)C2F (stereo not shown) [Example 156, 2-amino-2′-fluoro-7′-(2-fluoropyridin-3-yl)-1,3′,3′-trimethyl-3′,4′-dihydro-2′H-spiro[imidazole-4,1′-naphthalen]-5(1H)-one] | 17.2
Cc1nc(C(=O)Nc2ccc3c(c2)C2(COC(N)=N2)CC(C)(C)C3)co1 (stereo not shown) [Example 90, N-(2′-amino-3-dimethyl-3,4-dihydro-2H,5′H-spiro[naphthalene-1,4′-oxazole]-7-yl)-2-methyloxazole-4-carboxamide] | 16.8
Cc1cncc(-c2ccc3c(c2)C2(CC(C)(C)C3)N=C(N)N(C)C2=O)c1 (stereo not shown) [Example 131, 2-amino-1,3′,3′-trimethyl-7′-(5-methylpyridin-3-yl)-3′,4′-dihydro-2′H-spiro[imidazole-4,1′-naphthalen]-5 (1H)-one] | 5.1

From patent US20120065195A1, “COMPOUNDS FOR TREATING NEURODEGENERATIVE DISEASES” (priority 2010, published 2012)
